Laboratory results taken from patent publication US8193192B2, “Heterocyclic FXR binding compounds” (Phenex Pharmaceuticals AG, priority 2006, dated 2012).
Converted amounts (≈) assume the structure as drawn.

Legend:
[1] = PAMPA permeability assay; format: in vitro ADME; settings: % of compound found in the receiver compartment after 16 hours; PBS pH 7.4, 5% DMSO, 23° C.
Procedure: Artificial membrane permeability was determined as follows: Tested compounds were dissolved to 10 mM in 100% DMSO. Permeability of compounds was measured in PBS (pH 7.4), 5% DMSO at 23° C. Safire (Tecan) plate reader was used for measurement the UV/Vis absorption. Protocol: Dilute stocks of tested compounds and controls with PBS to 1.67 mM and mix well by pipetting, add 280 μl of PBS, 5% DMSO to acceptor plate, add 5 μl of 2% L-α-Phosphatidylcholine suspension in dodecane to the membrane of donor plate. Immediately add 98 μl of PBS to donor plate and make the sandwich with acceptor plate. Add 42 μl of tested compounds and controls dilutions to […], cover the plate, place into camera and incubate for 16 hours. Make the equilibrium plate, add 225 μl of PBS, 3.7% DMSO and 25 μl of tested compounds and controls dilutions to UV plate. After 16 hours pull the donor plate out and transfer 250 μl from acceptor plate to UV plate. Scan UV plate on Safire (Tecan) plate reader from […]. Permeability is reported in % of compound found in the receiver compartment after the incubation period. Applying this protocol, PAMPA permeabilities of examples and reference compounds were determined as follows (see Table 4): […]

[2] = Aqueous solubility assay, Protocol A, nephelometry method; format: physicochemical; settings: PBS with 5% DMSO, aqueous with cosolvent or surfactant or cyclodextrin, kinetic from dmso stock, PBS pH 7.4, 5% DMSO, 23° C.
Procedure: (§1) Aqueous solubility of compounds was determined by nephelometry or by shake-flask method as follows:
Protocol A, Nephelometry Method:
Solubility of compounds was measured in PBS (pH 7.4), 5% DMSO at 23° C. Nepheloskan Ascent (Thermo Electron Corporation) nephelometer was used for measurement of light scattering. Tested compounds were dissolved in DMSO to 10 mM. Prior to measurement the compounds were further diluted with PBS in the wells to final compound concentrations of 100, 70, 50, 35, 25, 17, 12 and <10 μg/ml.
The plates were incubated at room temperature for 24 hours to reach equilibrium and the scattered light was measured. Assay validation: Aqueous solubility of acetylsalicylic acid was determined to validate the assay. […] Aqueous solubilities of examples and reference compounds are listed below in Table 2.

[3] = target: T1, human farnesoid X receptor (FXR) alpha ligand binding domain (Homo sapiens, UniProt Q96RI1); experiment: FRET activity assay (ligand mediated cofactor peptide interaction, LANCE); format: biochemical; settings: FXR-LBD/SRC-1 peptide interaction
T1 construct: made in house; host or cells: E. coli BL21(DE3), vector pDEST15
T1 sequence (Q96RI1 187-472 isoform Q96RI1-2): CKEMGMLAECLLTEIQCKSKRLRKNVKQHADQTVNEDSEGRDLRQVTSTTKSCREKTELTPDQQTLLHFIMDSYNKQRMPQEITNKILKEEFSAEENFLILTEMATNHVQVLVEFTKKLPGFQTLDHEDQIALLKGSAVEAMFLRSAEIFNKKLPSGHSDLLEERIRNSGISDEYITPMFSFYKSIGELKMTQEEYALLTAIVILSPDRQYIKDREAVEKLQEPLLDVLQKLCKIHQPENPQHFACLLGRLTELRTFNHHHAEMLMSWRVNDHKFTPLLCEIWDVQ
Procedure: Determination of a ligand mediated cofactor peptide interaction to quantify ligand binding to the nuclear receptor Farnesoid X Receptor (FXR) was performed as follows:
Preparation of human farnesoid X receptor (FXR) alpha ligand binding domain: The human FXRalpha ligand binding domain (LBD) was expressed in E. coli strain BL21(DE3) as an N-terminally glutathione-S-transferase (GST) tagged fusion protein. The DNA encoding the FXR ligand binding domain was cloned into vector pDEST15 (Invitrogen). Expression was under control of an IPTG inducible T7 promoter. The amino acid boundaries of the ligand binding domain were amino acids 187-472 of Database entry NM_005123 (RefSeq). Expression and purification of the FXR-LBD: An overnight preculture of a transformed E. coli strain was diluted 1:20 in LB-Ampicillin medium and grown at 30° C. to an optical density of OD600=0.4-0.6. Gene expression was then induced by addition of 0.5 mM IPTG. Cells were incubated an additional 6 h at 30° C., 180 rpm. Cells were collected by centrifugation (7000×g, 7 min, room temperature). Per liter of original cell culture, cells were resuspended in 10 ml lysis buffer (50 mM Glucose, 50 mM Tris pH 7.9, 1 mM EDTA and 4 mg/ml lysozyme) and left on ice for 30 min. Cells were then subjected to sonication and cell debris removed via centrifugation (22000×g, 30 min, 4° C.). Per 10 ml of supernatant 0.5 ml prewashed Glutathione 4B sepharose slurry (Qiagen) was added and the suspension kept slowly rotating for 1 h at 4° C. Glutathione 4B sepharose beads were pelleted by centrifugation (2000 g, 15 sec, 4° C.) and washed twice in wash buffer (25 mM Tris, 50 mM KCl, 4 mM MgCl2 and 1 M NaCl). The pellet was resuspended in 3 ml elution buffer per liter of original culture (elution buffer: 20 mM Tris, 60 mM KCl, 5 mM MgCl2 and 80 mM glutathione added immediately prior to use as powder). The suspension was left rotating for 15 min at 4° C., the beads pelleted and eluted again with half the volume of elution buffer than the first time. The eluates were pooled and dialysed overnight in 20 mM Hepes buffer (pH 7.5) containing 60 mM KCl, 5 mM MgCl2 as well as 1 mM dithiothreitol and 10% (v/v) glycerol. The protein was analysed by SDS-Page.
The method measures the ability of putative ligands to modulate the interaction between the purified bacterial expressed FXR ligand binding domain (LBD) and a synthetic biotinylated peptide based on residues 676-700 of SRC-1 (LCD2, 676-700). The sequence of the peptide used was B-[…]-COOH where the N-terminus was biotinylated (B). The ligand binding domain (LBD) of FXR was expressed as fusion protein with GST in BL-21 cells using the vector pDEST15. Cells were lysed by sonication, and the fusion proteins purified over glutathione sepharose (Pharmacia) according to the manufacturers instructions. […] For ease of handling and reduction of background from compound fluorescence LANCE technology makes use of generic fluorophore labels and time resolved detection Assays were done in a final volume of 25 μl in a 384 well plate, in a Tris-based buffer (20 mM Tris-HCl pH 7.5; 60 mM KCl, 5 mM MgCl2; 35 ng/μl BSA), containing 20-60 ng/well recombinantly expressed FXR-LBD fused to GST, 200-600 nM N-terminally biotinylated peptide, representing SRC1 aminoacids 676-700, 200 ng/well Streptavidin-xIAPC conjugate (Prozyme) and 6-10 ng/well Eu W1024-antiGST (Perkin Elmer). […]

[4] = Microsomal stability assay; format: in vitro ADME; settings: pH 7.4; mouse liver microsomes, 37° C.
Procedure: Microsomal Stability Assay
In vitro assays were performed to evaluate the metabolic stability of test items in liver microsomes originating from mouse. Preparation of working standards of test items: Working solutions were prepared for each calibration level by appropriate dilution of the corresponding stock solution, depending on each compound's solubility in acetonitrile or acetonitrile/water. Calibration standards were prepared by spiking 196 μl standard matrix with 4 μl of the corresponding working solution. The standard matrix consists of 0.15 mg/ml of microsomal protein in phosphate buffer (100 mM pH 7.4), the final standard solutions contain 2% acetonitrile. The samples and standard solutions were extracted with ethyl acetate, isolation of the compounds was performed by addition of 600 μl ethyl acetate containing the internal standard (0.1 μM) to 200 μl sample and calibration standard. After vigorously shaking (10 minutes) and centrifugation (5000 g) the aqueous phase was separated by freezing in an acetone/dry ice bath and the organic phase is evaporated to dryness using a vacuum centrifuge. Samples were reconstituted in 200 μl acetonitrile/water mix (1:1 v/v) and subsequently subjected to LC-MS/MS. The incubation solution (180 μl) consisted of 90 μl of a microsomal suspension of 0.33 mg/ml of protein in phosphate buffer 100 mM pH 7.4 and 90 μl NADP-regenerating system. The reaction was initiated by the addition of 20 μl of test compound (in 20% acetonitrile) to the preincubated microsomes/buffer mix at 37° C. 200 μl samples were removed from the incubation after 0, 5, 10, and 30 minutes and processed for ethyl acetate extraction as described above. Negative controls using boiled microsomes (boiling water bath, 25 minutes) without regenerating system were run in parallel. The amount of compound in the samples is expressed as percentage of remaining compound compared to time point zero (=100%). These percentages were plotted against the corresponding time points. Intrinsic clearance (CLint) and half-life (t1/2) estimates were determined using the rate of parent disappearance and following formula (1) and (2). (1) CLint=(−k)×V×fu. (2) t1/2=ln 2/−k. Where CLint=intrinsic clearance [μl/min/mg protein], t1/2=half life [min], k=slope from the linear regression of log [test compound] versus time plot [1/min]. V=6666.7; fu=unbound fraction in the blood. Applying this protocol gave microsomal stabilities for examples and reference compounds as listed below in Table 6: […]

[5] = Aqueous solubility assay, Protocol B, shake-flask method; format: physicochemical; settings: 10 mM PBS buffer with 1% MeOH, kinetic from dmso stock, 10 mM PBS buffer pH 7.4, 1% MeOH, room temperature, read-out: Aqueous solubility pH 7.4 (μM) (±standard deviation), shake-flask method
Procedure: as §1
Protocol B, Shake-Flask Method:
Sample preparation: Sample and standard solution preparation is performed by mixing equal volumes of acetonitrile containing the internal standard (1 μM final concentration) with sample and calibration standard solutions (100 μl). After vigorously shaking (10 seconds) the samples are centrifuged (6000 g) for 5 minutes at 20° C. Aliquots of the particle-free supernatants are transferred to 200 μl sample vials and subsequently subjected to LC-MS/MS analysis. Assay procedure: Test concentration was 100 μM in 10 mM PBS buffer pH 7.4 with a final MeOH concentration of 1%. The volume of the incubation solution was 500 μl. Depending on each compound's solubility in MeOH, the stock concentration and the incubation concentration was adapted. The test solutions in quadruplicates were shaken at 300 rpm over a 20 hours period at room temperature, followed by centrifugation at 20000 g for 30 minutes to separate the solid phase. 100 μl of particle free sample are added to 100 μl acetonitrile containing the internal standard. The aqueous solubility of the compounds was determined by measuring the concentration of the PBS buffer supernatant by HPLC-MS/MS. Aqueous solubilities of examples and reference compounds are listed below in Table 3.

[6] = The Merck index, 10th edition; cited from earlier work

Structure (SMILES) | PAMPA Permeability [1] | EC50 [3] | further results
CC(C)c1onc(-c2c(Cl)cccc2Cl)c1COc1ccc(Oc2ccc(C(=O)NS(C)(=O)=O)cc2)cn1 [Example 4, 4-(6-((3-(2,6-Dichlorophenyl)-5-isopropylisoxazol-4-yl)methoxy)pyridin-3-yloxy)-N-(methylsulfonyl)benzamide] | – | ≤ 1000 nM | half-life [4]: 30 min; microsomal CLint [4]: 153 µL/min/mg; solubility at 20 h [5]: 114 µM (≈ 65.7 µg/mL); melting point: 182 to 184 °C
CC(C)c1onc(-c2c(Cl)cccc2Cl)c1COc1ccc(Oc2ccc(C(=O)O)cc2)nn1 [Example 5, 4-(6-((3-(2,6-Dichlorophenyl)-5-isopropylisoxazol-4-yl)methoxy)pyridazin-3-yloxy)benzoic acid] | – | ≤ 1000 nM | –
CC(=O)Oc1ccccc1C(=O)O [acetylsalicylic acid] | – | – | Aqueous solubility, reported literature value [6]: at least 2.17 mg/ml

More lines, main results first:

PAMPA Permeability [1] | EC50 [3] | Structure (SMILES) | further results
7% | – | CC(C)c1onc(-c2c(Cl)cccc2Cl)c1COc1ccc(/C=C/c2cccc(C(=O)O)c2)c(Cl)c1 [Compound B, reference compound] | –
54% | ≤ 1000 nM | CC(C)c1onc(-c2c(Cl)cccc2Cl)c1COc1ccc(Oc2ccc(C(=O)O)cc2)cn1 [Example 1, 4-(6-((3-(2,6-Dichlorophenyl)-5-isopropylisoxazol-4-yl)methoxy)pyridin-3-yloxy)benzoic acid] | solubility at 24 h [2]: > 200 µM
43% | ≤ 1000 nM | CC(C)c1onc(-c2c(Cl)cccc2Cl)c1COc1ccc(Oc2cccc(C(=O)O)c2)cn1 [Example 2, 3-(6-((3-(2,6-Dichlorophenyl)-5-isopropylisoxazol-4-yl)methoxy)pyridin-3-yloxy)benzoic acid] | –
